Experimental data: patent EP1200395B1, “UREA DERIVATIVES AS INHIBITORS OF CCR-3 RECEPTOR” (KIRIN BEER KABUSHIKI KAISHA, priority 1999, dated 2001)

Experiments:
CCR-3 [1] = target: T1, CCR-3 (Homo sapiens, UniProt P51677); assay: Calcium mobilization assay (inhibition of eotaxin-induced intracellular calcium mobilization in CCR3/HEK293 cells); type: cell-based; set-up: expressed in transfected cells; conditions: eotaxin 10 nM; for Ca^2+ mobilization 6.25 µg/ml (inhibition %): 6.25 µg/ml test compound, CCR3/HEK293 cells (Table 2a); for Ca^2+ mobilization 1.25 µg/ml (inhibition %): 1.25 µg/ml test compound, CCR3/HEK293 cells (Table 2b)
T1 sequence (P51677 1-355): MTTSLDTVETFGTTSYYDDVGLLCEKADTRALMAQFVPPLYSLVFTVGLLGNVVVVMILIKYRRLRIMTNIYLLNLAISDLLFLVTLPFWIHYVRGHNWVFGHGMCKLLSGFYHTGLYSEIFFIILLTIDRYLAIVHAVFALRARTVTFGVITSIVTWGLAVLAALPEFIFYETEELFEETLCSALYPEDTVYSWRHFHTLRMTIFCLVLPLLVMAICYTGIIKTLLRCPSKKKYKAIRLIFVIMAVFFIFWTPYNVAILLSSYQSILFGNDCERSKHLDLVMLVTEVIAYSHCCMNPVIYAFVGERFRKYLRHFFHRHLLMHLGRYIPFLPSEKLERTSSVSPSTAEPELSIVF
Method: Compounds 93-162 used in this assay were synthesized by using the method described in Example 6.
CCR-3 transfectant cells (CCR3/HEK293) were isolated and resuspended with assay buffer (20 mM HEPES, 125 mM NaCl, 5 mM KCl; 0.5 mM glucose, 1 mM CaCl2, 1 mM MgCl2, 0.1 % BSA). After washing CCR3/HEK293 cells with assay buffer, cells were loaded with Fura-2/AM in assay buffer for 1 hour at room temperature. Cells were washed and resuspended with assay buffer at 5 x 10^6 cells/ml in assay buffer, and placed in a tissue culture plate (Falcon, no. 3296). Test compounds dissolved in DMSO were added to the wells, followed by eotaxin (10 nM at final concentration). Cells were excited at 340 nm and 380 nm in a fluorimeter (ARGUS50, FDSS2000, Hamamatsu Photonics) and the relative ratio of the fluorescence emitted at 510 nm was recorded. For a control, DMSO without a test compound was added. Intracellular calcium mobilization was calculated as described in Krogel C. et al. , FEBS Let. (1989) 243 , 41-46.

CCR-3 [2] = target: T1, CCR-3; assay: Eotaxin-induced chemotaxis of CCR-3 transfectant cells (CCR3/U937); type: cell-based; set-up: expressed in transfected cells; host or cells: U937; conditions: 6.25 µg/ml test compound; eotaxin 1 x 10^-9 M; CCR3/U937 cells (Table 3b)

Ca^2+ mobilization 6.25 µg/ml (inhibition %) (CCR-3 [1]) | CCR-3 Transfectant Chemotaxis Assay 6.25 µg/ml (inhibition %) (CCR-3 [2]) | Ca^2+ mobilization 1.25 µg/ml (inhibition %) (CCR-3 [1]) | Compound
50% | 40% |  | CCN(CCCNC(=O)Nc1cccc(C)c1)CCc1ccccc1 [Compound 137]
57% | 47% |  | COC(=O)CCCN(CCCNC(=O)Nc1ccccc1-c1ccccc1)CCc1ccccc1 [Compound 106]
56% | 31% |  | CCOC(=O)C1CC1CN(CCCNC(=O)Nc1cccc(C)c1)CCc1ccccc1 (stereo not shown) [Compound 138]
54% | 54% |  | CC(C)CN(CCCNC(=O)Nc1ccc(Br)cc1)Cc1ccc2c(c1)OCO2 [Compound 126]
55% | 11% |  | Cc1ccc(CCN(CCCNC(=O)Nc2ccc(Br)cc2)CCCC(=O)O)cc1 [Compound 132]
51% | 22% |  | O=C(NCCCN(CCc1ccccc1)CCc1ccc(Cl)c(Cl)c1)Nc1ccccc1-c1ccccc1 [Compound 114]
57% | 32% |  | COc1ccc(CCN(CCCNC(=O)Nc2ccccc2-c2ccccc2)C[C@@H]2CCCN2)cc1OC [Compound 110]
65% | 90% |  | CCOC(=O)C1CC1CN(CCCNC(=O)Nc1ccc(Br)cc1)C1CCCc2ccccc21 (stereo not shown) [Compound 125]
57% | 34% |  | O=C(NCCCN(CCc1ccccc1)CCc1c[nH]cn1)Nc1ccc(Br)cc1 [Compound 120]
53% | 54% |  | CSCCCN(CCCNC(=O)Nc1ccccc1-c1ccccc1)Cc1ccc2c(c1)OCO2 [Compound 100]
68% | 82% |  | O=C(NCCCN(CCc1ccc(Cl)c(Cl)c1)C[C@@H]1CCCN1)Nc1ccccc1-c1ccccc1 [Compound 116]
62% | 65% |  | CC(C)CCN(CCCNC(=O)Nc1ccc(Br)cc1)CCc1c[nH]cn1 [Compound 119]
. 53% | 47% |  | CC(C)CCN(CCCNC(=O)Nc1ccccc1-c1ccccc1)Cc1ccc2c(c1)OCO2 [Compound 99]
63% | 32% |  | Cc1cccc(NC(=O)NCCCN(Cc2ccc3c(c2)OCO3)CC(C)C)c1 [Compound 136]
63% | 19% |  | O=C(NCCCN(Cc1ccc2c(c1)OCO2)C[C@@H]1CCCN1)Nc1ccccc1-c1ccccc1 [Compound 102]
51% | 44% |  | Cc1ccc(CCN(CCCNC(=O)Nc2ccccc2-c2ccccc2)CC(C)C)cc1 [Compound 111]
50% |  |  | CSCCCN(CCCNC(=O)Nc1ccc(Cl)c(C(F)(F)F)c1)Cc1ccc2c(c1)OCO2 [Compound 94]
 |  | 57% | CC[N+](CCCNC(=O)Nc1ccc(OC)cc1)(CCc1ccc(Cl)c(Cl)c1)CCC(C)C.[I-] (stereo not shown) [compound 436]
 |  | 62% | CC[N+](CCCNC(=O)Nc1ccc(OC)cc1)(CCc1ccc(Cl)cc1)CC1CCC1.[I-] (stereo not shown) [compound 440]
55% |  |  | CC(C)CN(CCCNC(=O)Nc1ccccc1-c1ccccc1)CCC(c1ccccc1)c1ccccc1 [Compound 117]
61% | 23% |  | COc1ccc(CCN(CCCNC(=O)Nc2ccccc2-c2ccccc2)CC(C)C)cc1OC [Compound 108]
 |  | 69% | CC[N+](CCCNC(=O)Nc1ccc(C#N)cc1)(CCOCCOC)CCc1ccc(Cl)cc1Cl.[I-] (stereo not shown) [compound 395]
53% | 55% |  | O=C(NCCCN(CCc1ccccc1)C[C@@H]1CCCN1)Nc1ccccc1-c1ccccc1 [Compound 107]
63% |  |  | O=C(O)CCCN(CCCNC(=O)Nc1ccccc1-c1ccccc1)Cc1ccc2c(c1)OCO2 [Compound 101]
 |  | 56% | CC[N+](CCCNC(=O)Nc1ccc(C#N)cc1)(CCc1cccc(Cl)c1)CCC(C)C.[I-] (stereo not shown) [compound 393]

Ca^2+ mobilization 6.25 µg/ml (inhibition %) (CCR-3 [1]) | CCR-3 Transfectant Chemotaxis Assay 6.25 µg/ml (inhibition %) (CCR-3 [2]) | Ca^2+ mobilization 1.25 µg/ml (inhibition %) (CCR-3 [1]) | Compound
57% | 21% |  | O=C(O)CCCN(CCCNC(=O)Nc1ccc(Cl)c(C(F)(F)F)c1)CCC(c1ccccc1)c1ccccc1 [Compound 97]
50% |  |  | CC(C)CN(CCCNC(=O)Nc1ccc(Br)cc1)Cc1ccc(C(F)(F)F)cc1 [Compound 129]
59% |  |  | O=C(NCCCN(CCOCc1ccccc1)Cc1ccc2c(c1)OCO2)Nc1ccc(Br)cc1 [Compound 127]
 |  | 63% | CC[N+](CCCNC(=O)Nc1ccc(OC)cc1)(CCc1ccc(Cl)cc1Cl)CC1CCC1.[I-] (stereo not shown) [compound 442]
51% | 66% |  | CC(C)CN(CCCNC(=O)Nc1ccccc1-c1ccccc1)CCc1ccc(Cl)c(Cl)c1 [Compound 113]
58% |  |  | COC(=O)CCCN(CCCNC(=O)Nc1ccc(Cl)c(Cl)c1)Cc1ccc2c(c1)OCO2 [Compound 160]
 |  | 58% | C=C(C)C[N+](CC)(CCCNC(=O)Nc1ccc(C#N)cc1)CCc1cccc(Cl)c1.[I-] (stereo not shown) [compound 399]
 |  | 50% | C=C(C)C[N+](CC)(CCCNC(=O)Nc1ccc(Cl)c(Cl)c1)CCc1ccc(Cl)c(Cl)c1.[I-] (stereo not shown) [compound 367]
51% |  |  | CSCCCN(CCCNC(=O)Nc1ccc(Br)cc1)Cc1ccc(C(F)(F)F)cc1 [Compound 130]
 |  | 63% | C=C(C)C[N+](CC)(CCCNC(=O)Nc1ccc(OC)cc1)CCc1cccc(Cl)c1.[I-] (stereo not shown) [compound 445]
 |  | 71% | CC[N+](CCCNC(=O)Nc1ccc(OC)cc1)(CCc1cccc(Cl)c1)CC1CCC1.[I-] (stereo not shown) [compound 441]
54% |  |  | COc1ccc(CCN(CCCNC(=O)Nc2cccc(C)c2)CCCC(=O)O)cc1OC [Compound 140]
53% |  |  | O=C(NCCCN(CCOCc1ccccc1)C1CCCc2ccccc21)Nc1ccc(Br)cc1 (stereo not shown) [Compound 123]
53% |  |  | COc1ccc(CCN(CCCNC(=O)Nc2ccc(Cl)c(C(F)(F)F)c2)CC(C)C)cc1OC [Compound 96]
 |  | 57% | C=C(C)C[N+](CC)(CCCNC(=O)Nc1ccc(C#N)cc1)CCc1ccc(Cl)c(Cl)c1.[I-] (stereo not shown) [compound 401]
 |  | 76% | C=C(C)C[N+](CC)(CCCNC(=O)Nc1ccc(OC)cc1)CCc1ccc(Cl)cc1Cl.[I-] (stereo not shown) [compound 446]
 |  | 70% | CC[N+](CCCNC(=O)Nc1ccc(Cl)c(Cl)c1)(CCc1cccc(Cl)c1)CC1CCC1.[I-] (stereo not shown) [compound 361]
54% |  |  | Cc1ccc(CCN(CCCNC(=O)Nc2cccc(Cl)c2)CCOCc2ccccc2)cc1 [Compound 152]
 |  | 65% | C=C(C)C[N+](CC)(CCCNC(=O)Nc1ccc(Cl)c(Cl)c1)CCc1cccc(Cl)c1.[I-] (stereo not shown) [compound 365]
 |  | 67% | CC[N+](CCCNC(=O)Nc1ccc(C#N)cc1)(CCOCCOC)CCc1ccc(Cl)c(Cl)c1.[I-] (stereo not shown) [compound 396]
50% |  |  | CCN(CCCNC(=O)Nc1ccc(Cl)c(C(F)(F)F)c1)C1CCCc2ccccc21 (stereo not shown) [Compound 93]
 |  | 69% | CC[N+](CCCNC(=O)Nc1ccc(C#N)cc1)(CCc1cccc(Cl)c1)CC1CCC1.[I-] (stereo not shown) [compound 397]
 |  | 56% | CC[N+](CCCNC(=O)Nc1ccc(Cl)c(Cl)c1)(CCc1ccc(Cl)c(Cl)c1)CC1CCC1.[I-] (stereo not shown) [compound 363]
51% |  |  | O=C(NCCCN(C[C@@H]1CCCN1)C1CCCc2ccccc21)Nc1ccccc1-c1ccccc1 (stereo partly shown) [Compound 98]
55% |  |  | CSCCCN(CCCNC(=O)Nc1ccc(Br)cc1)C1CCCc2ccccc21 (stereo not shown) [Compound 124]
